Measurements reported in patent US20250073234A1, “COMBINATION THERAPIES INCLUDING PARP1 INHIBITORS” (Cornell University, priority 2022, published 2025).

Columns and labels:
PARP-1 = assay: Poly(ADP-ribosyl)ation in WPMY-1 cells (immunoblot, immunoprecipitation); type: cell-based, human; conditions: added to lactate-treated cells, 48 h
Description: Cells for protein analysis were lysed in RIPA buffer (20 mM Tris-HCl, […], 2 mM EDTA, 1% Triton-X, 10% glycerol, 0.1% SDS, and 0.5% sodium deoxycholate) with phosphatase and protease inhibitors. For immunoprecipitations, cells were lysed in IP lysis buffer (100 mM NaCl, 25 mM Tris, 1% Triton-X, 10% glycerol, with phosphatase and protease inhibitors) and immunoprecipitated with 25 μl of 50% slurry of protein […] beads (Bioworld). Immunoprecipitates were washed three times with lysis buffer, once with high salt (500 mM NaCl), and once more with lysis buffer. Protein concentration in lysates was determined by using Protein Assay Kit (Bio-Rad). Cell extracts and immunoprecipitated proteins were denatured, subjected to SDS-PAGE, transferred to PVDF membranes (GE Healthcare). After blocking with 5% nonfat dry milk in Tris-buffered saline and 0.1% Tween (TBS-T), the membranes were incubated with the specific antibodies (as listed in Key Resources Table) overnight at 4° C. After 2 hours incubation with the appropriate horseradish peroxidase-conjugated antibodies, the immune complexes were detected by chemiluminescence (Thermo Scientific) or Near-infrared fluorescence (LI-COR).

PC3^GFP cells = assay: Survival of GFP-labeled PC3 cells alone or co-cultured with WPMY-1 cells; type: cell-based, human; conditions: Olaparib 5 μM, 10 days, basal and ADT
Description: Co-culture assays were performed as described previously (Valencia et al., 2014). Briefly, stromal cells were seeded in TC-treated 6-well plates and allowed to attach for 6 hours before PCa cells were seeded on top of Milicell Cell Culture Inserts (Millipore). Inserts were then placed in the pre-seeded 6-well plate. For co-culture experiments of PC3-GFP label with WPMY-1 cells, 500 PC3 and 1000 WPMY-1 were seeded in a 96 well plate in DMEN containing 10% FBS (basal conditions) or 10% charcoal stripped FBS (ADT conditions) and vehicle (DMSO) or Olaparib 5 μM for 10 days. Media and treatments were refresh every 48 hours. Pictures were taken using EVOS M5000 Imaging System and GFP positive were measured using Fiji (Schindelin et al., 2012).

TRAMP+ prostate tumors = assay: TRAMP+ prostate tumor model (IHC, scRNAseq); type: in vivo, mouse
Description: For mouse xenografts using PC3 PCa cells and sgC or sgAP-1 WPMY-1 stromal cells. 7 weeks old NSG mice were surgical castrated and let androgen levels drop for 10 days. Cells were trypsinized washed two times in PBS and resuspend in DMEN. 1×10^6 PC3 and 1×10^6 sgC or sgAP1-A WPMY-1 for each mouse were resuspended in 100 μl DMEM: Matrigel (1:1) and injected subcutaneously into both flanks of immunocompromised NSG mice (PC3+sgC WPMY-1 n=4; PC3+sgAP-1 WPMY-1 n=4). Tumors were allowed to grow for 1 month. Mice were euthanized and tumors were collected and analyzed histologically. For Olaparib treatment in mouse xenografts. PC3 PCa cells and WPMY-1 stromal cells were trypsinized washed two times in PBS and resuspend in DMEN. 1×10^6 PC3 and 1×10^6 WPMY-1 for each mouse were resuspended in 100 μl DMEM: Matrigel (1:1) and injected subcutaneously into both flanks of immunocompromised NSG mice. Tumors were allowed to grow for 14 days, and mouse were randomly divided to receive vehicle, n=10, Olaparib (40 mg/kg, 2 days each week, i.p.), n=10 or Olaparib (40 mg/kg, 2 days each week, i.p.)+_PEGPH20 (0.0375 mg/Kg, 2 days each week, retroorbital injection) n=10. Tumors were measured twice a week. Mice were euthanized 14 days after the initiation of the treatment and tumors were collected and analyzed histologically. For Olaparib treatment in mice, 13 weeks-old male TRAMP^+, n=18, were randomly distributed to receive vehicle, n=9, or Olaparib (40 mg/kg/, 5 days each week, i.p.), n=9. Mice were euthanized 1 month after the initiation of the treatment. Prostate and other organs were collected and analyzed histologically.
Tissues from indicated mice were isolated, fixed in zinc buffered formalin overnight at 4° C., dehydrated, and embedded in paraffin. Sections (5 μm) were stained with hematoxylin and eosin (H&E). For immunohistochemistry, sections were deparaffinized, rehydrated, and then treated for antigen retrieval. After blocking in Protein Block Serum-Free solutions (DAKO), tissues were incubated with primary antibody overnight at 4° C. followed by incubation with biotinylated secondary antibody. Endogenous peroxidase was quenched in 3% H2O2 in water for 10 minutes at room temperature. Antibodies were visualized with avidin-biotin complex (Vectastain Elite; Vector Laboratories) using diaminobenzidine as the chromogen. Stained sections were analyzed with a Zeiss light microscope supplemented with Zen 3.3 Bule edition software.
Prostate lobes dissected and washed with cold PBS. Prostate tissue was gently minced with scissors and digested in Advance DMEN/F12 media (Gibco, Thermo Fisher) with 5 mg/ml Collagenase type II (Sigma) supplemented with Y27632 (Tocris) for 1 hour at 37° C. Cells were passed through a 70 μm strainer and centrifuge 5 minutes, 1000 rpm at 4° C. After that, cells were incubated with TrypLE Express (Gibco, Thermo Fisher) supplemented with Y27632 for 20 minutes in agitation at 37° C. to achieve a single cell suspension. TrypLE Express was quenched and washed with Advance DMEN/F12 media and then cells were centrifuged for 5 minutes, 1000 rpm at 4° C. Dead cells were removed by Annexin V ([…] technologies). scRNA-seq libraries were generated using the Chromium Single Cell 30 Reagent Kit v2 (10× Genomics). Cells were loaded onto the 10×Chromium Single Cell Platform (10× Genomics) at a concentration of 2,000 cells per μl (Single Cell 3′ library and Gel Bead Kit v.2) as described in the manufacturer's protocol (10× User Guide, Revision B). On average, approximately 8,000 cells were loaded. Generation of gel beads in emulsion (GEMs), barcoding, GEM-RT clean-up, complementary DNA amplification and library construction were all performed as per the manufacturer's protocol. Individual sample quality was checked using a Bioanalyzer Tapestation (Agilent). Qubit was used for library quantification before pooling. The final library pool was sequenced on an Illumina NovaSeq6000 instrument using a S1 flow cell. […]

Compound | poly(ADP-ribosyl)ation of c-JUN and c-FOS in lactate-treated cells (PARP-1) | sensitivity of PC3^GFP cells to Olaparib, co-culture vs monoculture (PC3^GFP cells) | desmoplastic response in the prostate (IHC HA, aSMA) (TRAMP+ prostate tumors; Olaparib 40 mg/Kg, 5 days a week, 4 weeks) | AR, EMT and TGFβ signaling signatures in tumor epithelium (TRAMP+ prostate tumors; Olaparib 4 weeks) | Has1, Spink1 and Tgfb2 transcripts in fibroblast population (scRNAseq) (TRAMP+ prostate tumors; Olaparib 4 weeks) | neuroendocrine cluster 2 (NE1) of tumor epithelium (scRNAseq) (TRAMP+ prostate tumors; Olaparib 4 weeks) | pSMAD2 staining in prostates (IHC) (TRAMP+ prostate tumors; Olaparib 4 weeks) | stromal and immune cell populations (scRNAseq) (TRAMP+ prostate tumors; Olaparib 4 weeks) | SPINK1 levels in tumor stroma (IHC) (TRAMP+ prostate tumors; in vivo)
NC(=O)c1ccc[n+]([C@@H]2O[C@H](COP(=O)([O-])OP(=O)(O)OC[C@H]3O[C@@H](n4cnc5c(N)ncnc54)[C@H](O)[C@@H]3O)[C@@H](O)[C@H]2O)c1 [NAD^+] | rescued the poly(ADP-ribosyl) ation of both transcription factors |  |  |  |  |  |  |  | 
O=C(c1cc(Cc2n[nH]c(=O)c3ccccc23)ccc1F)N1CCN(C(=O)C2CC2)CC1 [Olaparib] |  | more resistant to Olaparib | induced a strong desmoplastic response in the prostate | increased AR, EMT and TGFβ signaling | among the most upregulated transcripts | completely abolished the neuroendocrine cluster 2 | increased pSMAD2 staining | expansion of the stromal and immune populations | highly upregulated
